Assay results from patent EP0848706B1, “SUBSTITUTED BENZENE-FUSED HETEROCYCLICS AS NEUROKININ ANTAGONISTS” (SCHERING CORPORATION, priority 1995, dated 1996).
Where two headings read alike, the source gives them in different places.

How the values were obtained:
[1] = target: T1, human NK-1 receptor (Homo sapiens, UniProt P25103); test: Neurokinin receptor binding assay, NK-1 ([3H]-Substance P, CHO cell membranes); conditions: for Ki: Ki according to Cheng and Prusoff from competition binding curves, read-out: Ki(NK1); for inhibition at 1 µM: read-out: % Inhibition NK1 (1µM dose)
T1 construct: expressed in transfected cells; host or cells: Chinese Hamster ovary (CHO) cells
Protocol: (§1) Chinese Hamster ovary (CHO) cells transfected with the coding regions for the human neurokinin 1 (NK1) of the human neurokinin 2 (NK2) receptors are grown in Dulbecco's minimal essential medium supplemented with 10% fetal calf serum, 0.1 mM non-essential amino acids, 2 mM glutamine, 100units/ml of penicillin and streptomycin, and 0.8 mg of G418/ml at 37°C in a humidified atmosphere containing 5% CO2.
(§2) Cells are detached from T-175 flasks with a sterile solution containing 5mM EDTA in phosphate buffered saline. Cells are harvested by centrifugation and washed in RPMI media at […] for 5 minutes. The pellet is resuspended inTris-HCl (pH7.4) containing 1 uM phsphoramidon and 4 ug/ml of chymostatin at a cell density of 30 x 10^6 cells/ml. The suspension is then homogenized in a Brinkman Polytron (setting 5) for 30-45 seconds. The homogenate is centrifuged at 800 x g for 5 min at 4°C to collect unbroken cells and nuclei. The supernatant is centrifuged in a Sorvall RC5C at 19,000 rpm ([…]) for 30 min at 4°C. The pellet is resuspended, an aliquot is removed for a protein determination (BCA) and washed again. The resulting pellet is stored at -80°C.
(§3) To assay receptor binding, 50 µl of [^3H]-Substance P (9-Sar, 11-Met) (specific activity 41 Ci/mmol) (Dupont-NEN) (0.8 nM for the NK-1 assay) or [^3H]-Neurokinin A (specific activity 114 Ci/ mmole) (Zenca) (1.0 nM for the NK-2 assay) is added to tubes containing buffer (50 mM Tris-HCl (pH 7.4) with 1 mM MnCl2 and 0.2% Bovine Serum Albumin) and either DMSO or test compound. Binding is initiated by the addition of 100µl of membrane (10-20 µg) containing the human NK-1 or NK-2 receptor in a final volume of 200 µl. After 40 minutes at room temperature, the reaction is stopped by rapid filtration onto Whatman GF/C filters which have been presoaked in 0.3% polyethylenimine. Filters are washed 2 times with 3 ml of 50 mM Tris-HCl (pH7.4). Filters are added to 6 mls of Ready-Safe liquid scintillation cocktail and quantified by liquid scintillation spectrometry in a LKB 1219 RackBeta counter. Non-specific binding is determined by the addition of either 1 µM of CP-99994 (NK-1) or 1µM SR-48968 (NK-2) (both synthesized by the chemistry department of Schering-Plough Research Institute). IC50 values are determined from competition binding curves and Ki values are determined according to Cheng and Prusoff using the experimentally determined value of 0.8 nM for the NK-1 receptor and 2.4 nM for the NK-2 receptor.
(§4) % Inhibition is the difference between the percent of maximum specific binding (MSB) and 100%. The percent of MSB is defined by the following equation, wherein "dpm" is disintegrations per minute: % MSB =((dpm of unknown) - (dpm of nonspecific binding))/((dpm of total binding) - (dpm of nonspecific binding))X 100 [formula]

[2] = target: T2, human NK-2 receptor (Homo sapiens, UniProt P21452); test: Neurokinin receptor binding assay, NK-2 ([3H]-Neurokinin A, CHO cell membranes); conditions: for Ki: Ki according to Cheng and Prusoff from competition binding curves, read-out: Ki (NK2); for inhibition at 1 µM: read-out: % Inhibition NK2 (1µM dose)
T2 construct: expressed in transfected cells; host or cells: Chinese Hamster ovary (CHO) cells
T2 sequence (P21452 1-398): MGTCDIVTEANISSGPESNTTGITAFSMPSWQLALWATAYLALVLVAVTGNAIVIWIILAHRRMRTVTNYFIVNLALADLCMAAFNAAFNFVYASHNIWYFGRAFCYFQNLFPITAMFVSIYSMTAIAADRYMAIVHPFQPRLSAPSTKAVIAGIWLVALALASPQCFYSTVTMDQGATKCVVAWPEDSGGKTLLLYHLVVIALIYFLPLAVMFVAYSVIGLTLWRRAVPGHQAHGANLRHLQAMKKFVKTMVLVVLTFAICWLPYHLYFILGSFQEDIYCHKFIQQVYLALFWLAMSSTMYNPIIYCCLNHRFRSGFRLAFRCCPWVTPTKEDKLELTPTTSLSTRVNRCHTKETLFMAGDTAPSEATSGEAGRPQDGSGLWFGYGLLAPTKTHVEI
Protocol: as §1, §2, §3, §4

[3] = target: T3, NK3 (Homo sapiens, UniProt P29371); test: NK3 activity, procedure similar to the literature (Molecular Pharmacol., 48 (1995), p. 711-716); type: binding
T3 sequence (P29371 1-465): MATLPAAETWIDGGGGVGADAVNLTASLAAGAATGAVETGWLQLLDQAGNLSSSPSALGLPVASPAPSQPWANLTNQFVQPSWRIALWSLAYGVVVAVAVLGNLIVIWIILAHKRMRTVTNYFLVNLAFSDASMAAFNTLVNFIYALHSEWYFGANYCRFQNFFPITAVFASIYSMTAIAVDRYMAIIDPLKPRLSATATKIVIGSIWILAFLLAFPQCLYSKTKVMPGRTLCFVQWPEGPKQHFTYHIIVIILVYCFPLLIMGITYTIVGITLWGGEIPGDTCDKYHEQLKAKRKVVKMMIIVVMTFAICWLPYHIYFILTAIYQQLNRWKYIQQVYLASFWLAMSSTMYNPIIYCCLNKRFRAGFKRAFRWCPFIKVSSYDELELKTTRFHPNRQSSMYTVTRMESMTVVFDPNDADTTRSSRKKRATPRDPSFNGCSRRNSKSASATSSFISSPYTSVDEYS
Protocol: NK3 activity is determined by following a procedure similar to that described in the literature, e.g., Molecular Pharmacol., 48 (1995), p. 711-716.

[4] = 1µM dose, % inhibition = 100% minus percent of maximum specific binding

T1 sequence (P25103 whole entry): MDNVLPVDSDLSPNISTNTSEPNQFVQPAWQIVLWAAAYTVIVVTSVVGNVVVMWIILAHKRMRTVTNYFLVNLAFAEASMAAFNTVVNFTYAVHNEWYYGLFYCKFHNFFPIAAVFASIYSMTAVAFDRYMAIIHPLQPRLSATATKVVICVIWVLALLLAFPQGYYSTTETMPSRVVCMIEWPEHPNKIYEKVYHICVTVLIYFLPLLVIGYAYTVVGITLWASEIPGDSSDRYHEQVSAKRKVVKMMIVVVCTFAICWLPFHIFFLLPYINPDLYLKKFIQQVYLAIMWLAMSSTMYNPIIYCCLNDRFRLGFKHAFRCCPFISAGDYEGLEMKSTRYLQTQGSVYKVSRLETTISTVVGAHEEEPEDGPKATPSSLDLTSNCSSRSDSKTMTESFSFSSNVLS

Q: For C=CCN(CCc1c[nH]c2ccccc12)CCC(CN(C)C(=O)c1cc(OC)c(OC)c(OC)c1)c1ccc(Cl)c(Cl)c1 (stereo not shown) [Example 9b], which Ki [1] is on record?
A: 23 nM

Q: What about the Ki [2] of the same compound?
A: 250 nM

Q: What does the source list for COc1cc(OC)cc(C(=O)N2CCC(CCN(C)CCc3c[nH]c4ccccc34)(c3ccc(Cl)c(Cl)c3)C2)c1 (stereo not shown) [Example 14a]?
A: Ki [1]: 233 nM; Ki [2]: 30 nM

Q: Which inhibition at 1 µM [1, 4] does the source give for CN(CCc1c[nH]c2ccccc12)CCC(CN(C)C(=O)c1ccc2c(c1)OCO2)c1ccc(Cl)c(Cl)c1 (stereo not shown) [Example 12a] here?
A: 69%

Q: And the Ki [1]?
A: 165 nM

Q: And the inhibition at 1 µM [2, 4]?
A: 96%

Q: And the Ki [2]?
A: 59 nM

Q: With COc1cc(C(=O)N(C)CC(CCN(C)CCc2c[nH]c3ccccc23)c2ccc(Cl)c(Cl)c2)cc(OC)c1OC (stereo not shown) [Example 2] as the compound, how does the Ki [1] read?
A: 25 nM

Q: What about the inhibition at 1 µM [1] of the same compound?
A: 81%

Q: And the Ki [2]?
A: 33 nM

Q: What about the inhibition at 1 µM [2] of the same compound?
A: 87%

Q: And the Ki [3]?
A: 448 nM

Q: Which results are given for COc1cc(C(=O)N(C)CC(CCN(C)CCc2c[nH]c3ccc(F)cc23)c2ccc(Cl)c(Cl)c2)cc(OC)c1OC (racemic) [Example 7c]?
A: Ki [1]: 12 nM; Ki [2]: 10 nM; inhibition at 1 µM [2]: 100%
